# The source made the active and inactive calls.
# Tests used:
# [1] = target: T1, High affinity choline transporter 1 (Homo sapiens, UniProt Q9GZV3); assay: CHT inhibitors, dose response, cell-based, 5-point CRC, membrane potential dye (AID 504840); assay type: functional
# T1 sequence (Q9GZV3 whole entry): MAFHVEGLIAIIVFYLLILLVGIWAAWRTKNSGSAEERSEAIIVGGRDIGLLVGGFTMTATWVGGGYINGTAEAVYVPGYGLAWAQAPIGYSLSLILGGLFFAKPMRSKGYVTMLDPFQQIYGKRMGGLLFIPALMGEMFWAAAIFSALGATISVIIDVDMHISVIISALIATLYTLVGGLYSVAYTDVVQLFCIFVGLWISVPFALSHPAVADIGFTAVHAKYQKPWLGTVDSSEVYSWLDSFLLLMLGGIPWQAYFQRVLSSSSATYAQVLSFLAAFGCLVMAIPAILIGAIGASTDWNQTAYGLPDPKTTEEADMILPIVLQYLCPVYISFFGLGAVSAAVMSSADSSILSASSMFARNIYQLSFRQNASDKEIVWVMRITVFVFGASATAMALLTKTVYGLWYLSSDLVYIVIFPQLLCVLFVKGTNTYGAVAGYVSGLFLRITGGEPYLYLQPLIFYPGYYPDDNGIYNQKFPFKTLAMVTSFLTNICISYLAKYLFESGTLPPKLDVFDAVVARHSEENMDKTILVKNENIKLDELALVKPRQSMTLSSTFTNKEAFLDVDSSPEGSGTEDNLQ
# Paired box protein Pax-8 = Paired box protein Pax-8 (Homo sapiens, UniProt Q06710); assay: inhibitors of PAX8-driven TPO luciferase reporter, dose response, RMG-I cells, cherry-pick (AID 687027); assay type: functional, cell-based;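 further: luciferase reporter driven by Pax8 target thyroperoxidase promoter measured by SteadyGlo luminescence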
# Sequence of Paired box protein Pax-8 (Q06710 whole entry): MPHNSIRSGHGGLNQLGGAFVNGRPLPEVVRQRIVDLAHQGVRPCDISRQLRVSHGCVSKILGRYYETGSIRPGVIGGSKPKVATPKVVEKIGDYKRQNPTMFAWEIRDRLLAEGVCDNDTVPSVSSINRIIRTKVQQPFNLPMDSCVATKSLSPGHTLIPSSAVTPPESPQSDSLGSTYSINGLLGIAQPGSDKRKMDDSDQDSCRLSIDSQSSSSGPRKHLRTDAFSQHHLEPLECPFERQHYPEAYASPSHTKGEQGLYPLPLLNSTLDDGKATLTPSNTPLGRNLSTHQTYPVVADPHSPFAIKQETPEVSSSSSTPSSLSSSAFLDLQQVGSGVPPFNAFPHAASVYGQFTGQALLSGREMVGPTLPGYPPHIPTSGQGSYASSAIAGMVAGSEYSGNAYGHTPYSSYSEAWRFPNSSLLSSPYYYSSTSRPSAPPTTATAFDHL
# [2] = cytotoxicity in OVCAR8 ovarian cancer cells, dose response, PAX8 project, cell-based, plate reader, dry powder samples (AID 743197); assay type: functional; conditions: OVCAR-8
# [3] = NIH:OVCAR-3 ovarian cancer cell cytotoxicity, dose response, PAX8 inhibitor project, plate reader, dry powder samples (AID 743044); assay type: functional, cell-based
# [4] = IGROV1 ovarian cancer cell cytotoxicity, dose response, PAX8 inhibitor project, plate reader, dry powder samples (AID 743043); assay type: functional, cell-based; conditions: IGROV-1
# [5] = target: 26S proteasome non-ATPase regulatory subunit 14 (Homo sapiens, UniProt O00487); assay: inhibition of proteasome subunit RPN11 – biochemical, fluorescence polarization, uHTS hits, confirmation (AID 602368); assay type: functional
# Sequence of 26S proteasome non-ATPase regulatory subunit 14 (O00487 whole entry): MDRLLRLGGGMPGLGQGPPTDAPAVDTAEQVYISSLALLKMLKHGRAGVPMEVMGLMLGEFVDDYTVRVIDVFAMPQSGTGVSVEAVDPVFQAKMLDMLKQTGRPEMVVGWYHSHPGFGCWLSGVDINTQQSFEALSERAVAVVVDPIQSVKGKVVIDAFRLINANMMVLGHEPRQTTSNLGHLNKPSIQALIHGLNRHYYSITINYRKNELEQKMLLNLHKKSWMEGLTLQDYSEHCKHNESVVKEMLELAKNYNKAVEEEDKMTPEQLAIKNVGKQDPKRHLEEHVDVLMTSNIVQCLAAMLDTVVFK
# [6] = target: 72 kDa type IV collagenase (Homo sapiens, UniProt P08253); assay: Dose Response validation of uHTS RPN11 inhibitor hits using a MMP-2 Fluorescence assay.; assay type: functional
# Prothrombin = Prothrombin (Bos taurus, UniProt P00735); assay: thrombin inhibition, dose response, biochemical, fluorescence polarization, uHTS hits (AID 602369); assay type: functional
# [7] = target: Mitogen-activated protein kinase 10 (Homo sapiens, UniProt P53779); assay: Dose response biochemical screening assay for inhibitors of c-Jun N-Terminal Kinase 3 (JNK3). [Related pubchem assays: 746 ]
# Sequence of Mitogen-activated protein kinase 10 (P53779 whole entry): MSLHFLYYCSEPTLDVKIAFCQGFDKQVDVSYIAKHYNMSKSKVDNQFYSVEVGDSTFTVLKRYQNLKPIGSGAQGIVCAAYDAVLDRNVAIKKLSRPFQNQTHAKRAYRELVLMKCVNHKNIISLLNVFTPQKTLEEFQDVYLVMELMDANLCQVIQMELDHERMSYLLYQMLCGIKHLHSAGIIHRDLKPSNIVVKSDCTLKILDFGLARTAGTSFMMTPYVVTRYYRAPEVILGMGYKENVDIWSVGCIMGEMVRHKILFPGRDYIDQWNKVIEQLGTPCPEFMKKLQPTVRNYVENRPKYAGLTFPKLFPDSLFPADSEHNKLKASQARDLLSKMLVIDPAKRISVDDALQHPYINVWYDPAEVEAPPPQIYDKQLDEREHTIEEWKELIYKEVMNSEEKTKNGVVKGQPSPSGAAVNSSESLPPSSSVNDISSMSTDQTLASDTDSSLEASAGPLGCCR
# cells = assay type: functional
# [8] = THP-1 cell cytotoxicity, dose response, cytotoxicity control for non-replicating M. tuberculosis project (AID 489025); assay type: functional
# [9] = intracellular Trypanosoma cruzi inhibitors in host cells – cell-based, plate reader, cherry-pick samples, set 3, dose response (AID 651818); assay type: functional;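 further: compounds incubated with infected cells for about four days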
# Large T antigen = Large T antigen (Simian virus 40, UniProt P03070); assay type: functional, Betapolyomavirus macacae;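 further: Confirmatory-stage PubChem screen for compounds that inhibit SV40 T antigen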
# [10] = target: Induced myeloid leukemia cell differentiation protein Mcl-1 (Homo sapiens, UniProt Q07820); assay type: functional
# Sequence of Induced myeloid leukemia cell differentiation protein Mcl-1 (Q07820 whole entry): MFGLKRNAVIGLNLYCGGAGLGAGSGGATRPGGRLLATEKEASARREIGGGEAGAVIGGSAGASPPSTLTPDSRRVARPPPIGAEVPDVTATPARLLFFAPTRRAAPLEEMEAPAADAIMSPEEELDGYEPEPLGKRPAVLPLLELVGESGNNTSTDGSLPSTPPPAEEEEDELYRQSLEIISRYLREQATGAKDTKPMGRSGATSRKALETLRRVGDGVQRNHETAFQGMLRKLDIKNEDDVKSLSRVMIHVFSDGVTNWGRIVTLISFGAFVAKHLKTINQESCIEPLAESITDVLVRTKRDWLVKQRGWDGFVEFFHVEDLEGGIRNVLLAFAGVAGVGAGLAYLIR
# [11] = target: T2, Probable nicotinate-nucleotide adenylyltransferase (Staphylococcus aureus (strain N315), UniProt P65502); assay type: functional, Staphylococcus aureus subsp. aureus N315;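 on IC50 Mean: confirmatory dose-response retesting of NadD inhibitor hits first found in an ultra-high-throughput screen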
# T2 sequence (P65502 whole entry): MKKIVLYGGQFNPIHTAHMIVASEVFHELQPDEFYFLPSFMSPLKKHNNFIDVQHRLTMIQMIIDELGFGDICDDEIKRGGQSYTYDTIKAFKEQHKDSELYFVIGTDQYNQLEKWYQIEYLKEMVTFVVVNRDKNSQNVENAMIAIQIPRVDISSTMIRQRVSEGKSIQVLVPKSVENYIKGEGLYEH
# [12] = target: T2, Probable nicotinate-nucleotide adenylyltransferase; assay type: functional, Staphylococcus aureus subsp. aureus N315; conditions: read-out: IC50_Mean
# [13] = target: T3, Small ubiquitin-related modifier 1 (Homo sapiens, UniProt P63165); assay: inhibitors of SUMO1 partner interactions, dose response, biochemical, FRET (AID 624383); assay type: functional; conditions: read-out: IC50_Mean
# T3 sequence (P63165 whole entry): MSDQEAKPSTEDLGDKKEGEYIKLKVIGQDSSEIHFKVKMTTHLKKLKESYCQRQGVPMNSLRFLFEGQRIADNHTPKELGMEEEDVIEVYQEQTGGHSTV
# [14] = target: T3, Small ubiquitin-related modifier 1; assay: inhibitors of SUMO1 peptide binding, dose response, biochemical, fluorescence polarization, uHTS hits (AID 624382); assay type: functional; conditions: read-out: IC50_Mean
# [15] = P. falciparum Dd2 growth inhibitors, dose response, SYBR Green, cherry-picked samples (AID 1159567); assay type: functional, cell-based
# [16] = P. falciparum 3D7-ScDHODH growth inhibitors, dose response, SYBR Green, dry powder samples (AID 1159570); assay type: functional, cell-based;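 further: parasite growth measured after 72 hours of compound exposure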
# [17] = P. falciparum Dd2 growth inhibitors, dose response, SYBR Green, dry powder samples (AID 1159566); assay type: functional, cell-based;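 further: potency for growth inhibition with lower SYBR green DNA signal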
# [18] = P. falciparum ATP4 D1247Y mutant growth inhibitors, dose response, NITD609-resistant line, SYBR Green, dry powder (AID 1159571); assay type: functional, cell-based;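 further: parasites synchronized at ring stage by sorbitol before testing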
# [19] = target: FAD-linked sulfhydryl oxidase ALR (Homo sapiens, UniProt P55789); assay: inhibitors of human ALR sulfhydryl oxidase, dose response, biochemical, H2O2 detection, luminescence, cherry-pick (AID 493248)
# [20] = target: Eukaryotic translation initiation factor 4E (Mus musculus, UniProt P63073); assay: eIF4E–eIF4G protein interaction inhibitors, dose response, biochemical, TR-FRET (AID 855); assay type: functional;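 further: potency for disrupting eIF4E binding to eIF4GI seen as loss of FRET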
# [21] = target: T4, Voltage-gated N-type calcium channel alpha-1B subunit/Amyloid beta A4 precursor protein-binding family A member 1 (Homo sapiens, UniProt Q00975+Q02410); assay type: protein assay
# T4 sequence (Q00975 whole entry): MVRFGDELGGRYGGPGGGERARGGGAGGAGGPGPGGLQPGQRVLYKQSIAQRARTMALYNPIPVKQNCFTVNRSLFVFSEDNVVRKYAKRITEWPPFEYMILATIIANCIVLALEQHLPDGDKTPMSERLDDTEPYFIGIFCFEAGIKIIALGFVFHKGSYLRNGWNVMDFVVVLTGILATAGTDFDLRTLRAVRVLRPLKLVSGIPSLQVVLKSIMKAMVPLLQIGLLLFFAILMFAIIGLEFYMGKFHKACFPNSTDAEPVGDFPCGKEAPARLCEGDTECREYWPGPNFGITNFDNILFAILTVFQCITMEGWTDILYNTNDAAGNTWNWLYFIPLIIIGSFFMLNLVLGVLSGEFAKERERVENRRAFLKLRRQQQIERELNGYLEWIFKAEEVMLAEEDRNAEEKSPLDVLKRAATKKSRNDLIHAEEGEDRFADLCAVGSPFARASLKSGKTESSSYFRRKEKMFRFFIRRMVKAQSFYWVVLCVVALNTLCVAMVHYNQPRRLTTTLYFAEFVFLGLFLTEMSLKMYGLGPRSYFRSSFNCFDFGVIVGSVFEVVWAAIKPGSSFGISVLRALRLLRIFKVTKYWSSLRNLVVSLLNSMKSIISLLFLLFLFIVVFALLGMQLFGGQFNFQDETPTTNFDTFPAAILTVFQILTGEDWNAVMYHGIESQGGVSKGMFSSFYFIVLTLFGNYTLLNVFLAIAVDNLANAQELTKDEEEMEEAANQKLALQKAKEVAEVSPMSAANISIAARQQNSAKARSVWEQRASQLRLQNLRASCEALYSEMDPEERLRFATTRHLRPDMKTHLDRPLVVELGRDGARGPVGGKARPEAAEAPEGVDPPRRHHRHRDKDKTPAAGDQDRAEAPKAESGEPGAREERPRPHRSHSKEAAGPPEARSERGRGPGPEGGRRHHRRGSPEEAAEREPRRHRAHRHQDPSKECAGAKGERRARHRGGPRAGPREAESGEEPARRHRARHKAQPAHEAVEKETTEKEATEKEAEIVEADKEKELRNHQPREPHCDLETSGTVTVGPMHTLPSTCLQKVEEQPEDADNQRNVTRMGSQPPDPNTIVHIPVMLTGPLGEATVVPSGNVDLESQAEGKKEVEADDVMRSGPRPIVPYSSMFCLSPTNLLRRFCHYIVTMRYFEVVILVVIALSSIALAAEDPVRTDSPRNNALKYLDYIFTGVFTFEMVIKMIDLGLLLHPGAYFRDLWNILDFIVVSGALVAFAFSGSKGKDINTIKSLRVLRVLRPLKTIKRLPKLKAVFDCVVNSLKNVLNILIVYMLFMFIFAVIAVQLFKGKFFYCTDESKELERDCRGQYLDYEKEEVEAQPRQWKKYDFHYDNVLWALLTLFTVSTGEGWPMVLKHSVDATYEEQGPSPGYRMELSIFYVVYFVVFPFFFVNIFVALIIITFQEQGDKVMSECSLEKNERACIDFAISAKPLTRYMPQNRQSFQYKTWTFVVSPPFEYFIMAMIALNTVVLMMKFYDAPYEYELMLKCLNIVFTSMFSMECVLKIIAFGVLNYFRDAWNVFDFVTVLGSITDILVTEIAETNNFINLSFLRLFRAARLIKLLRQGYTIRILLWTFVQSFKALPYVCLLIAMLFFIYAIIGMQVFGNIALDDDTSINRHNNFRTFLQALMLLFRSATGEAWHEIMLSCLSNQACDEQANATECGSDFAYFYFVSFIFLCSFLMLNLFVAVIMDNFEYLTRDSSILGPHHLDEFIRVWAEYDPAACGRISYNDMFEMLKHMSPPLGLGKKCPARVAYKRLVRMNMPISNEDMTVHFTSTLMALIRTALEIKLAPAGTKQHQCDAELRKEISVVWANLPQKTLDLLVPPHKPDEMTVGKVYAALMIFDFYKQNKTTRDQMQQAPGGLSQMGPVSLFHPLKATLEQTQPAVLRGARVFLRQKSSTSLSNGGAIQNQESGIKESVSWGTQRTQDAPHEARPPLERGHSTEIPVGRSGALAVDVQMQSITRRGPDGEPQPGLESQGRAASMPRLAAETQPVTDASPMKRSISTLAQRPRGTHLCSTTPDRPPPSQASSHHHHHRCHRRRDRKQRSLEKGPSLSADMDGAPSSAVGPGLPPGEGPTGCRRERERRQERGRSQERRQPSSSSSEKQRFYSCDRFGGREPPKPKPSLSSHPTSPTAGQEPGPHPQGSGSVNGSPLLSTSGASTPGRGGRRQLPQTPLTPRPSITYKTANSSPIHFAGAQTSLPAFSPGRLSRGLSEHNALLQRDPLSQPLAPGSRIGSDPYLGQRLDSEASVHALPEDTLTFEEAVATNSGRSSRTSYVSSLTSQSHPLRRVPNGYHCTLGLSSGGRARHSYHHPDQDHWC
# T4 sequence (Q02410 whole entry): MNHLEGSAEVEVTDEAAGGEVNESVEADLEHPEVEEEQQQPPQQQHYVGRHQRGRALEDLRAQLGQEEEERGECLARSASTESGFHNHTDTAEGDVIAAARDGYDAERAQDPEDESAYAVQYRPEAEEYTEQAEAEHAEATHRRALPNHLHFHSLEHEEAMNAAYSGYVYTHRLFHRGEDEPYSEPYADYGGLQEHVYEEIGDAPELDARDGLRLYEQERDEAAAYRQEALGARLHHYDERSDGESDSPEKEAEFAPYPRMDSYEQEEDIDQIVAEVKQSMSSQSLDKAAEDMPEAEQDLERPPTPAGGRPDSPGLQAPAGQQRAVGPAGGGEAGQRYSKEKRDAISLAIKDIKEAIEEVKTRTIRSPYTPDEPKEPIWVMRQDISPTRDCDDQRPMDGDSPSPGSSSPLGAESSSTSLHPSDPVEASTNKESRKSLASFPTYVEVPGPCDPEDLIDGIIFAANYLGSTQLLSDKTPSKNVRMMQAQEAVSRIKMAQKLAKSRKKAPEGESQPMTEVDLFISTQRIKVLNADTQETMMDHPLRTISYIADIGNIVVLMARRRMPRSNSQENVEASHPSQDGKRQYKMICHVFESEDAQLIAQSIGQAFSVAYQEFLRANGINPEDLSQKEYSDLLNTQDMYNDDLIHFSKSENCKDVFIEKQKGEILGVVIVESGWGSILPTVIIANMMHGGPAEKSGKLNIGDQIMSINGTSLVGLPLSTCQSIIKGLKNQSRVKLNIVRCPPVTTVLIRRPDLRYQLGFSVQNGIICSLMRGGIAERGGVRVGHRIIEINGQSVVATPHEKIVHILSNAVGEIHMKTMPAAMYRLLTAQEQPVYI
# [22] = target: T4, Voltage-gated N-type calcium channel alpha-1B subunit/Amyloid beta A4 precursor protein-binding family A member 1; assay type: protein assay; remark: listed apart in the source
# [23] = target: T5, Short transient receptor potential channel 4 (Mus musculus, UniProt Q9QUQ5); assay: mouse TRPC4 channel inhibitors, dose response, cell-based, HEK293 TRPC4/mu-opioid, Fluo-4 calcium (AID 434942); assay type: functional;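 further: potency of inhibitors blocking the TRPC4 calcium response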
# T5 sequence (Q9QUQ5 whole entry): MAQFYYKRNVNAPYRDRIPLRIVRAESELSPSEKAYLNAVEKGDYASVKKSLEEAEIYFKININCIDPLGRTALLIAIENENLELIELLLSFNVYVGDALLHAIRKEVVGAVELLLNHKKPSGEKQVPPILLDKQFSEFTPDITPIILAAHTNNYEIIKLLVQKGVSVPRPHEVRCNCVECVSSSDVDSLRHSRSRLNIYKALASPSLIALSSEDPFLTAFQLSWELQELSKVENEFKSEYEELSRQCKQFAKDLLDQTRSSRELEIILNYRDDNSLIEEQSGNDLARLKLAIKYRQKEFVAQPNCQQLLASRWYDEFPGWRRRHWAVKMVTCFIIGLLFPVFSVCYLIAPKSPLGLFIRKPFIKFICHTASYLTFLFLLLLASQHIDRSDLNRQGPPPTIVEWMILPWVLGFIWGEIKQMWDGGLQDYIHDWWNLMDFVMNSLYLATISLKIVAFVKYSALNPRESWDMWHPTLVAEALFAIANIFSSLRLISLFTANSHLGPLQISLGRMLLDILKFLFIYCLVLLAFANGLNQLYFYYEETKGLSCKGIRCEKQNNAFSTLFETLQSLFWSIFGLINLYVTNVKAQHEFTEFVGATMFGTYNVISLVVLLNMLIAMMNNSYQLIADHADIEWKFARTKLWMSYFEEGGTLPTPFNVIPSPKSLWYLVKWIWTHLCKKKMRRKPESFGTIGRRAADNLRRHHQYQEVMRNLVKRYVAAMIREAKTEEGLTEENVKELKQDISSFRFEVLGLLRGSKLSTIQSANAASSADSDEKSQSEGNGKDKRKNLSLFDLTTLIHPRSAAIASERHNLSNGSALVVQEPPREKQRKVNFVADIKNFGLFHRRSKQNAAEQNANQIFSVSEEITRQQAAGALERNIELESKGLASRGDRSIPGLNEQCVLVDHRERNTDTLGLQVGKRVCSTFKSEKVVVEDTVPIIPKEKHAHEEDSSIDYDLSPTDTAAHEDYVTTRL
# Genome polyprotein = Genome polyprotein (dengue virus type 2, UniProt P29990); assay: Dengue-2 NS5 methyltransferase inhibitors, primary screen, biochemical, confirmation dose response (AID 588689); assay type: functional
smiles,measurement,setting,value
Cc1ccc(S(=O)(=O)CCC(=O)OC(C)C(=O)N2CCc3ccccc32)cc1 (stereo not drawn),IC50,[1],12.6 µM (active)
Cc1ccc(S(=O)(=O)Nc2ccc3c(c2)C(=O)N([C@@H](C)CO)C[C@H](C)[C@@H](CN(C)Cc2ccc(C(F)(F)F)cc2)OCCCC[C@H](C)O3)cc1,AC50,Paired box protein Pax-8,7.48 µM (active)
same,AC50,[2],46.9 µM (active)
same,AC50,[3],24.1 µM (active)
same,AC50,[4],29.5 µM (active)
COc1ccc(C=C2SC(=S)N(CCCC(=O)Nc3ccc(C(=O)O)c(O)c3)C2=O)cc1OC,IC50,[5],26.2 µM (active)
same,IC50,[6],> 100 µM (inactive)
same,IC50,Prothrombin,35.3 µM (active)
CCOC(=O)CCCc1sc(N)nc1-c1[nH]c(O)nc1C,IC50,[7],> 93.1 µM (not active)
CCC(=O)Nc1ccc(C(=O)NNC(=O)c2cc([N+](=O)[O-])cc([N+](=O)[O-])c2)cc1,IC50,cells,10.3 µM (active)
same,CC50,[8],> 40 µM (active)
CC(C)(C)NC(=O)NC(=O)CN1CCC(Cc2ccccc2)CC1,IC50,[1],12 µM (active)
C[C@@H]1CN([C@H](C)CO)C(=O)c2cccc(NC(=O)CCCCCC(=O)Nc3ccccc3N)c2O[C@@H]1CN(C)Cc1ccc(C(F)(F)F)cc1,AC50,[9],2.34 µM (active)
COc1ccc(/C=C2/C(=O)NC(=S)N(C3CC3)C2=O)cc1CN1C(=O)c2ccccc2C1=O,IC50,Large T antigen,48.5 µM (active)
same,IC50,[10],5.54 µM (active)
N#CC1=C(S)N=C(N)C(c2nc(-c3ccccc3)cs2)C12CCCCC2 (stereo not drawn),IC50,[11],10.4 µM (active)
same,IC50,[12],23.2 µM (active)
O=c1c(-c2c(O)cc(O)c3c(=O)cc(-c4ccc(O)cc4)oc23)c(-c2ccc(O)cc2)oc2cc(O)cc(O)c12,IC50,[13],9.2 µM (active)
same,IC50,[14],> 66.6 µM (inactive)
same,IC50,[10],2.73 µM (not active)
CC1CCCC(C)N1CCCNC(=O)CN1C(=O)c2cccnc2Oc2ccc(Cl)cc21 (stereo not drawn),IC50,[1],13.8 µM (active)
Cc1ccc(S(=O)(=O)Nc2ccc3c(c2)C(=O)N([C@H](C)CO)C[C@H](C)[C@H](CN(C)S(=O)(=O)c2ccc(Cl)cc2)O3)cc1,AC50,[9],4.35 µM (active)
Cc1cc(O)ccc1-c1cnc2ccccc2n1,IC50,[7],28.1 µM (not active)
O=C(CCn1cnc2ccccc2c1=O)Nc1ccc(S(=O)(=O)N2CCCCC2)cc1,IC50,[7],38.4 µM (not active)
C[C@@H]1CN([C@@H](C)CO)C(=O)Cc2cc(NC(=O)Nc3ccc(C(F)(F)F)cc3)ccc2O[C@@H]1CN(C)S(=O)(=O)c1ccc(F)cc1,AC50,[9],6.4 µM (active)
O=C(Nc1ccccc1F)N1CCCCN2[C@@H](CO)[C@H](c3ccc(C#Cc4cccnc4)cc3)[C@@H]2C1,AC50,[15],1.1 µM (active)
same,AC50,[16],0.652 µM (active)
same,AC50,[17],0.949 µM (active)
same,AC50,[18],0.824 µM (active)
COc1cc(C(=O)Nc2ccc(N(C)C)cc2)cc(OC)c1OC,IC50,Large T antigen,6.34 µM (active)
same,AC50,[19],1.31 µM (active)
same,IC50,[10],4.78 µM (not active)
C=CCN(CC=C)S(=O)(=O)c1ccc2nc(NC(=O)C(C)C)sc2c1,IC50,[1],13.8 µM (active)
NC(=O)c1ccc2c(=O)n3c(-c4cc(Cl)c(N)c(Cl)c4)csc3nc2c1,IC50,[13],13.4 µM (active)
same,IC50,[14],> 66.6 µM (inactive)
CCN(CC)CCCNC(=O)CC1Sc2ccccc2NC1=O (stereo not drawn),IC50,[20],> 64 µM (inactive)
COc1cc(NC(=O)c2ccccc2)ccc1NC(=O)c1cc2ccccc2o1,IC50,[21],> 56.8 µM (not active)
same,IC50,[22],> 50 µM (inactive)
COc1ccc(CC(=O)Nc2cc(C)ccn2)cc1,IC50,[7],21.4 µM (not active)
C[C@@H]1CN([C@H](C)CO)C(=O)c2cc(NS(=O)(=O)c3ccc(Cl)cc3)ccc2O[C@@H](C)CCCCO[C@@H]1CN(C)CC1CCCCC1,AC50,Paired box protein Pax-8,9.23 µM (active)
same,AC50,[2],18.8 µM (active)
same,AC50,[3],9.37 µM (active)
same,AC50,[4],44.4 µM (active)
C[C@H]1CCCCO[C@H](CN(C)C(=O)Nc2ccc(C(F)(F)F)cc2)[C@@H](C)CN([C@@H](C)CO)C(=O)c2cc(NS(=O)(=O)c3ccccc3)ccc2O1,AC50,Paired box protein Pax-8,6.7 µM (active)
same,AC50,[2],45.8 µM (active)
same,AC50,[4],40.6 µM (active)
Cc1cc(C)c(NC(=O)CCCCCNC2CCCCC2)c(C)c1,IC50,[1],12.6 µM (active)
NC(=O)CC(NC(=O)c1ccc(Br)cc1)c1ccc(NC2CCCCCC2)c([N+](=O)[O-])c1 (stereo not drawn),IC50,[5],31.6 µM (active)
same,IC50,[6],> 100 µM (inactive)
same,IC50,Prothrombin,88.5 µM (active)
CC(C)CN(CC(C)C)c1ccc(C=C2C(=O)NC(=S)NC2=O)cc1[N+](=O)[O-],EC50,[23],1.88 µM (active)
same,IC50,Genome polyprotein,15.9 µM (active)
same,IC50,[20],42.1 µM (inactive)
